# Data as given in article PMC4508061, “Selectivity Profiling and Biological Activity of Novel β-Carbolines as Potent and Selective DYRK1 Kinase Inhibitors” (PLoS ONE, 2015).
# “Also recorded” adds a separate entry of the source.
# Key:
# NLK = NLK (Homo sapiens, UniProt Q9UBE8); test: ProQinase radiometric kinase panel; details: mean of 2 exp.
# MARK1 = MARK1 (Homo sapiens, UniProt Q9P0L2); test: ProQinase radiometric kinase panel; details: mean of 2 exp.
# STK33 = STK33 (Homo sapiens, UniProt Q9BYT3); test: ProQinase radiometric kinase panel; details: mean of 2 exp.
# CDK3/CycE1 = CDK3/CycE1 (Homo sapiens, UniProt Q00526); test: ProQinase radiometric kinase panel; details: mean of 2 exp.
# MYLK2 = MYLK2 (Homo sapiens, UniProt Q9H1R3); test: ProQinase radiometric kinase panel; details: mean of 2 exp.
# EEF2K = EEF2K (Homo sapiens, UniProt O00418); test: ProQinase radiometric kinase panel; details: mean of 2 exp.
# PKC-beta1 = PKC-beta1 (Homo sapiens, UniProt P05771); test: ProQinase radiometric kinase panel; details: mean of 2 exp.
# CAMKK1 = CAMKK1 (Homo sapiens, UniProt Q8N5S9); test: ProQinase radiometric kinase panel; details: mean of 2 exp.
# p38-delta = p38-delta (Homo sapiens, UniProt O15264); test: ProQinase radiometric kinase panel; details: mean of 2 exp.
# TAOK2 = TAOK2 (Homo sapiens, UniProt Q9UL54); test: ProQinase radiometric kinase panel; details: mean of 2 exp.
# BTK = BTK (Homo sapiens, UniProt Q06187); test: ProQinase radiometric kinase panel; details: mean of 2 exp.
# AMPK-alph1 = AMPK-alph1 (Homo sapiens, UniProt Q13131); test: ProQinase radiometric kinase panel; details: mean of 2 exp.
# TRK-A = TRK-A (Homo sapiens, UniProt P04629); test: ProQinase radiometric kinase panel; details: mean of 2 exp.
# JNK1 = JNK1 (Homo sapiens, UniProt P45983); test: ProQinase radiometric kinase panel; details: mean of 2 exp.
# ACV-R1 = ACV-R1 (Homo sapiens, UniProt Q04771); test: ProQinase radiometric kinase panel; details: mean of 2 exp.
# WNK2 = WNK2 (Homo sapiens, UniProt Q9Y3S1); test: ProQinase radiometric kinase panel; details: mean of 2 exp.
# CK1-delta = CK1-delta (Homo sapiens, UniProt P48730); test: ProQinase radiometric kinase panel; details: mean of 2 exp.
# CK1-gamma3 = CK1-gamma3 (Homo sapiens, UniProt Q9Y6M4); test: ProQinase radiometric kinase panel; details: mean of 2 exp.
# RET = RET (Homo sapiens, UniProt P07949); test: ProQinase radiometric kinase panel; details: mean of 2 exp.
# EPHA5 = EPHA5 (Homo sapiens, UniProt P54756); test: ProQinase radiometric kinase panel; details: mean of 2 exp.
# AKT2 = AKT2 (Homo sapiens, UniProt P31751); test: ProQinase radiometric kinase panel; details: mean of 2 exp.
# DAPK2 = DAPK2 (Homo sapiens, UniProt Q9UIK4); test: ProQinase radiometric kinase panel; details: mean of 2 exp.
# TTK = TTK (Homo sapiens, UniProt P33981); test: ProQinase radiometric kinase panel; details: mean of 2 exp.
# PDK1 = PDK1 (Homo sapiens, UniProt O15530); test: ProQinase radiometric kinase panel; details: mean of 2 exp.
# MAO-A = target: T1, MAO-A (Homo sapiens, UniProt P21397); test: MAO-GLO assay; assay type: biochemical
# T1 sequence (P21397 1-527): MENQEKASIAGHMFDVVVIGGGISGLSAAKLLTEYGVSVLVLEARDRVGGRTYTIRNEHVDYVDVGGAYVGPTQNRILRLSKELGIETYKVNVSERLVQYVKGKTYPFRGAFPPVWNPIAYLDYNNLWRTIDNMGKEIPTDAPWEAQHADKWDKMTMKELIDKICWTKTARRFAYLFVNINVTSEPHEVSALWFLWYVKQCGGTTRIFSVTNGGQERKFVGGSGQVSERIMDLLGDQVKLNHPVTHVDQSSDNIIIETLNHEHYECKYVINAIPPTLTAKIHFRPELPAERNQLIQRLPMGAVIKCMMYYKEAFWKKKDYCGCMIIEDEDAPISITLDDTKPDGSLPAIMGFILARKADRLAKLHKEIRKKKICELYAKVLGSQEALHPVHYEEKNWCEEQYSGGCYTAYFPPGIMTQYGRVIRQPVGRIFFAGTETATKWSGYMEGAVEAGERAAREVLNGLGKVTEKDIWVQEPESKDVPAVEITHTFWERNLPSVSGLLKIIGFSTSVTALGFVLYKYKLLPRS
# Protocol: 2 were calculated. Kinase activity of DYRK1A was determined by radiometric assays using the peptide DYRKtide as a substrate. MAO-A activity was measured with the help of the MAO-GLO assay kit (Promega). IC50 values were calculated by curve fitting with the help of […]
# the […] PRISM 5.0 program after automatic outlier elimination. The graphs present
# RPS6KA3 = RPS6KA3 (Homo sapiens, UniProt P51812); test: ProQinase radiometric kinase panel; details: mean of 2 exp.
# CAMK2D = CAMK2D (Homo sapiens, UniProt Q13557); test: ProQinase radiometric kinase panel; details: mean of 2 exp.
# CDC42BPB = CDC42BPB (Homo sapiens, UniProt Q9Y5S2); test: ProQinase radiometric kinase panel; details: mean of 2 exp.
# PKC-iota = PKC-iota (Homo sapiens, UniProt P41743); test: ProQinase radiometric kinase panel; details: mean of 2 exp.
# CDC42BPA = CDC42BPA (Homo sapiens, UniProt Q5VT25); test: ProQinase radiometric kinase panel; details: mean of 2 exp.
# TIE2 = TIE2 (Homo sapiens, UniProt Q02763); test: ProQinase radiometric kinase panel; details: mean of 2 exp.
# RET, sequence (P07949 29-1114): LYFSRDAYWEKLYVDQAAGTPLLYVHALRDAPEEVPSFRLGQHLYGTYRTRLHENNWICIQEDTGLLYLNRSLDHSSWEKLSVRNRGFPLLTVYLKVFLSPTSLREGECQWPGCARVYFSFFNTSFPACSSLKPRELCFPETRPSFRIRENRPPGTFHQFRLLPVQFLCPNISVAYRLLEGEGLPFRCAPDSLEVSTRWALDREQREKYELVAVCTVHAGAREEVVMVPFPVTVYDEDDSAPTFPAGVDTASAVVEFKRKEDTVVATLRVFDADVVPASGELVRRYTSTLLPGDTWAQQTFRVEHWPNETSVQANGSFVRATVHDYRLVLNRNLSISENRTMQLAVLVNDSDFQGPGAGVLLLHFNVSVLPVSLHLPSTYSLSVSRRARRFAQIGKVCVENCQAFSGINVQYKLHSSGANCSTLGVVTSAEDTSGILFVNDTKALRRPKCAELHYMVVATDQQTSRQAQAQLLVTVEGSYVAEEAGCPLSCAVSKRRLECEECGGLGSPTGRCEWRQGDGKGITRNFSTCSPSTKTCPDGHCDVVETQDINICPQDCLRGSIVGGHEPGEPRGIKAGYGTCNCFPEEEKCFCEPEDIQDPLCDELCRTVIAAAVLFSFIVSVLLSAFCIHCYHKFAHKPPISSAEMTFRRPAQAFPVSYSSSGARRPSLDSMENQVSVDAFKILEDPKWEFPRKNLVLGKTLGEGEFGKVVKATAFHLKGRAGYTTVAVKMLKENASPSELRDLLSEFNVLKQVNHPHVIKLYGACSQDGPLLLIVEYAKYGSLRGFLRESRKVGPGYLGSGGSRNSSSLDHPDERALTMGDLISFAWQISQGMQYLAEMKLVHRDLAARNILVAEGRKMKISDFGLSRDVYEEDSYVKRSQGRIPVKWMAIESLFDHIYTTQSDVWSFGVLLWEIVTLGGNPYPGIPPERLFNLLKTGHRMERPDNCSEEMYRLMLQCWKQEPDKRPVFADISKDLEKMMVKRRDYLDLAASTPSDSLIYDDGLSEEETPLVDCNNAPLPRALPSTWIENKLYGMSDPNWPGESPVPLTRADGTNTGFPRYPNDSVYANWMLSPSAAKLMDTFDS
# EEF2K, sequence (O00418 whole entry): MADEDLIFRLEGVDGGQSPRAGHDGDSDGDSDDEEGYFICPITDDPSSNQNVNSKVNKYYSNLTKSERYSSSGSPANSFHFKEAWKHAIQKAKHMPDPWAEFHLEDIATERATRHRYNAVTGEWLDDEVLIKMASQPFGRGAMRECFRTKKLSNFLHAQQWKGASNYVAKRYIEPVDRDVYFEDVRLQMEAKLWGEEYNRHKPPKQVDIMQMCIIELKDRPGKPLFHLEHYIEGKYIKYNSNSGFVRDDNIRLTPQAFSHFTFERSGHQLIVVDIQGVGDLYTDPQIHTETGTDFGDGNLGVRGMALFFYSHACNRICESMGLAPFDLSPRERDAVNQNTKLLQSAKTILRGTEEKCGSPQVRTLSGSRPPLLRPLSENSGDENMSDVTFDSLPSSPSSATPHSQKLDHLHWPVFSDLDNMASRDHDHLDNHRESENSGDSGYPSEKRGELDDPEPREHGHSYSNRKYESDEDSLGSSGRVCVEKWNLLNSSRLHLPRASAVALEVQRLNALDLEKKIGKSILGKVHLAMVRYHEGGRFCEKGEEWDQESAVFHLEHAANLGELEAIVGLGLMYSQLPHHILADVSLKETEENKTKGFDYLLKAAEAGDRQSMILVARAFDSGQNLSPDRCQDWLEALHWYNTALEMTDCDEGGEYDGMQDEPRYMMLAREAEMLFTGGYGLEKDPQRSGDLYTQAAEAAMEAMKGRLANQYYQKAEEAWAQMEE
# ACV-R1, sequence (Q04771 21-509): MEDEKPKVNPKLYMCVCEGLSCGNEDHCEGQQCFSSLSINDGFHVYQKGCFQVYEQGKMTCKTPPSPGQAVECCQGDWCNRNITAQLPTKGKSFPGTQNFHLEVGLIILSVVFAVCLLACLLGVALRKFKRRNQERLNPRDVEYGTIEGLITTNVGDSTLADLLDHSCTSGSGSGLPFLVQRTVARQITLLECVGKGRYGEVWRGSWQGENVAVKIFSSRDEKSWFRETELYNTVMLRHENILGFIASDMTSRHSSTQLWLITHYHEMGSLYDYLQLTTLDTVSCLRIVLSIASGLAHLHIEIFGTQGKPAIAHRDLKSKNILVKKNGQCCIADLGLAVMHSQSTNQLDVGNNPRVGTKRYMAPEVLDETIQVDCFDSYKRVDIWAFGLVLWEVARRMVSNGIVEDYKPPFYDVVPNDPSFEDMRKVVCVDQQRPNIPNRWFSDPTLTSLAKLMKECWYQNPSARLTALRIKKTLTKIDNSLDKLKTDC
# WNK2, sequence (Q9Y3S1 whole entry): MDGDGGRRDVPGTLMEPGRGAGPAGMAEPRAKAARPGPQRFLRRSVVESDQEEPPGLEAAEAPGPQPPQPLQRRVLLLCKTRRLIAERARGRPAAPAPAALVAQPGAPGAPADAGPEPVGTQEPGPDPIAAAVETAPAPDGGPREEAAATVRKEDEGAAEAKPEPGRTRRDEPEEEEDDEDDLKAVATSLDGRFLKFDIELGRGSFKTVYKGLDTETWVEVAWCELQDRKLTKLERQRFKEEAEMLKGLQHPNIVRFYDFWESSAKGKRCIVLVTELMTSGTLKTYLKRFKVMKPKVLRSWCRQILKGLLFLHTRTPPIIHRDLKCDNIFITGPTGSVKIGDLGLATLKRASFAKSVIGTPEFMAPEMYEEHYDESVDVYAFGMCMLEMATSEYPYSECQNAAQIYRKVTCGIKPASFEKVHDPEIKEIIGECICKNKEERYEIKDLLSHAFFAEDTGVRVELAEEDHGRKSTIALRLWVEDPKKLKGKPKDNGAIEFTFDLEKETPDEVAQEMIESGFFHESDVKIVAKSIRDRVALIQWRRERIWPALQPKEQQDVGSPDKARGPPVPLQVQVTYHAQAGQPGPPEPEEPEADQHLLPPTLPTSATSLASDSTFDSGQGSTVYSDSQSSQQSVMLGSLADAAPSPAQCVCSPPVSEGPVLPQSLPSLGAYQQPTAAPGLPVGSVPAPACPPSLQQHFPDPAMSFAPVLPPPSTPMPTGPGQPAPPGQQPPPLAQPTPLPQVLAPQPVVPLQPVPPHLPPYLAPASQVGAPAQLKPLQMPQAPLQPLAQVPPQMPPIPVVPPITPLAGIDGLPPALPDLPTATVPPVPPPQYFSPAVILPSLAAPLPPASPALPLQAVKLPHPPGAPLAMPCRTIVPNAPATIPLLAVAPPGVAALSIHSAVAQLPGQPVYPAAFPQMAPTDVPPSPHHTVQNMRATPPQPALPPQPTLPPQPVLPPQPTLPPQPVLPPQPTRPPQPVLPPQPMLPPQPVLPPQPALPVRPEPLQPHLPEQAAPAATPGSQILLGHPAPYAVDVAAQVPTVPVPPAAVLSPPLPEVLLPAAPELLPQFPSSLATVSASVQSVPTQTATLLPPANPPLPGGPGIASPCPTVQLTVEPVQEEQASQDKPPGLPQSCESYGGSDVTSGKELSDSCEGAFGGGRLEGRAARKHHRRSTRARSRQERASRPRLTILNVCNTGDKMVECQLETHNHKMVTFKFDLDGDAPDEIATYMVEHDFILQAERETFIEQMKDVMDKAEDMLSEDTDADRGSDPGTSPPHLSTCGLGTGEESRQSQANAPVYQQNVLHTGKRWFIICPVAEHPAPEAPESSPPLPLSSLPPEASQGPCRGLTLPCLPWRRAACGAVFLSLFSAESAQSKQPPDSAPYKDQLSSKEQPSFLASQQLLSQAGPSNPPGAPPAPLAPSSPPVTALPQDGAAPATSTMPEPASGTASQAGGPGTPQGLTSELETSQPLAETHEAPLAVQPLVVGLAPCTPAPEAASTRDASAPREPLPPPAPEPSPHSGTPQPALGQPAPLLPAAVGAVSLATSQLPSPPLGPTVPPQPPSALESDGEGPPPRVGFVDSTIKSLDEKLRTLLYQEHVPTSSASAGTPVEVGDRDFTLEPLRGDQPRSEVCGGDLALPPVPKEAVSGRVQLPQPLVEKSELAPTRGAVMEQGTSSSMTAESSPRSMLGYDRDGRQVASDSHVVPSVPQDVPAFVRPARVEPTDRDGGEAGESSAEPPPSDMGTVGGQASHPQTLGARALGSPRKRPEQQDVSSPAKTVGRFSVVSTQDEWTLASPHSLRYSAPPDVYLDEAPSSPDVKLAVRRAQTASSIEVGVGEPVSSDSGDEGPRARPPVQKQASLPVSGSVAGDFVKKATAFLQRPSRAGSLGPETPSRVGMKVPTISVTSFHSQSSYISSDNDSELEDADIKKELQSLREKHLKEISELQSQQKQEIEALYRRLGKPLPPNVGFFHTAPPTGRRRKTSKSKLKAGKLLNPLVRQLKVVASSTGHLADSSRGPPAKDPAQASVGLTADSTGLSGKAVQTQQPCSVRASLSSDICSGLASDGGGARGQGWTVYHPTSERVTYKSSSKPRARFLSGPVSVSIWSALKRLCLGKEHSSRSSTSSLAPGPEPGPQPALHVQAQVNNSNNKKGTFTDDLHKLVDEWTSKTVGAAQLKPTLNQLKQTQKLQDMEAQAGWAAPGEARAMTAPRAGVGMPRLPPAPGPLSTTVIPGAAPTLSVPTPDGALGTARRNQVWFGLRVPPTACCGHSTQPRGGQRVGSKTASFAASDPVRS
# CK1-gamma3, sequence (Q9Y6M4 whole entry): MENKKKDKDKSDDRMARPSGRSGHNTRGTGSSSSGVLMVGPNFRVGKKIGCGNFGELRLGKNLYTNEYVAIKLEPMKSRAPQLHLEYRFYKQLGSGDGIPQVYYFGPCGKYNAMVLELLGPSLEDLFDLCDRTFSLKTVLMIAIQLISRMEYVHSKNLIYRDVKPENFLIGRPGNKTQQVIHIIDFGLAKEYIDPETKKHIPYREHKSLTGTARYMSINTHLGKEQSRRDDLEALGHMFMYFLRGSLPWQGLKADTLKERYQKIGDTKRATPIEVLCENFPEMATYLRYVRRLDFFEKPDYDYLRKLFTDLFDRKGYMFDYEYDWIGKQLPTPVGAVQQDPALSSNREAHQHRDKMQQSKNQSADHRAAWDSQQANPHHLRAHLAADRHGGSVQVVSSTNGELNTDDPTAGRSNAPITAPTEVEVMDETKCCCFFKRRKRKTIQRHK
structure (smiles),measurement,setting,value
COc1ccc2c3ccnc(Cl)c3n(CC#N)c2c1 [AnnH75],"residual activity at 1 µM, Mean",NLK,92 % of control
same,"residual activity at 1 µM, Mean",MARK1,101 % of control
same,"residual activity at 1 µM, Mean",STK33,87 % of control
same,"residual activity at 1 µM, Mean",CDK3/CycE1,94 % of control
same,"residual activity at 1 µM, Mean",MYLK2,90 % of control
same,"residual activity at 1 µM, Mean",EEF2K,98 % of control
same,"residual activity at 1 µM, Mean",PKC-beta1,93 % of control
same,"residual activity at 1 µM, Mean",CAMKK1,89 % of control
same,"residual activity at 1 µM, Mean",p38-delta,89 % of control
same,"residual activity at 1 µM, Mean",TAOK2,98 % of control
same,"residual activity at 1 µM, Mean",BTK,96 % of control
same,"residual activity at 1 µM, Mean",AMPK-alph1,92 % of control
same,"residual activity at 1 µM, Mean",TRK-A,84 % of control
same,"residual activity at 1 µM, Mean",JNK1,99 % of control
same,"residual activity at 1 µM, Mean",ACV-R1,93 % of control
same,"residual activity at 1 µM, Mean",WNK2,98 % of control
same,"residual activity at 1 µM, Mean",CK1-delta,71 % of control
same,"residual activity at 1 µM, Mean",CK1-gamma3,93 % of control
same,"residual activity at 1 µM, Mean",RET,89 % of control
same,"residual activity at 1 µM, Mean",EPHA5,84 % of control
same,"residual activity at 1 µM, Mean",AKT2,106 % of control
same,"residual activity at 1 µM, Mean",DAPK2,97 % of control
same,"residual activity at 1 µM, Mean",TTK,91 % of control
same,"residual activity at 1 µM, Mean",PDK1,99 % of control
same,effect on MAO-A,MAO-A,complete elimination of MAO-A inhibition; also recorded: no residual effect on MAO-A
same,IC50,"MAO-A; n = 3–5 concentration response curves, read-out: Inhibition of MAO-A IC50",> 10 µM
same,"residual activity at 1 µM, Mean",RPS6KA3,101 % of control
same,"residual activity at 1 µM, Mean",CAMK2D,87 % of control
same,"residual activity at 1 µM, Mean",CDC42BPB,94 % of control
same,"residual activity at 1 µM, Mean",PKC-iota,102 % of control
same,"residual activity at 1 µM, Mean",CDC42BPA,76 % of control
same,"residual activity at 1 µM, Mean",TIE2,84 % of control
